Seven compounds from US20080064714A1, “Novel Pyrrolodihydroisoquinolines” (NYCOMED GMBH, priority 2005, published 2008) can be followed below.

The subject of series [1] is NCl-H460 non-small cell lung cancer cells. Briefly: Alamar Blue cell viability assay (anti-proliferative/cytotoxic activity). It is filed as cell-based. To be noted: Homo sapiens, NCI-H460 cells, 72 hours incubation, read-out: −log IC50 NCI-H460 (mol/l), anti-proliferative/cytotoxic activity (converted). On the procedure: The anti-proliferative/cytotoxic activity of the compounds described herein, can be tested on NCl-H460 non-small cell lung cancer cells using the Alamar Blue cell viability assay (described in O'Brien et al. Eur J Biochem 267, 5421-5426, 2000). The compounds are dissolved as 20 mM solutions in dimethylsulfoxide (DMSO) and subsequently diluted in semi-logarithmic steps. DMSO dilutions are further diluted 1:10 into Dulbecco's modified Eagle's medium (DMEM) containing 10% fetal calf serum to a final concentration ten times as much as the final concentration in the test. NCl-H460 cells are seeded into 96 well flat bottom plates at a density of 4000 cells per well in a volume of 180 μl per well. 24 hours after seeding the 20 μl each of the compound dilutions in DMEM medium are added into each well of the 96 Well plate. Each compound dilution is tested as quadruplicates. Wells containing untreated control cells are filled with […] DMEM medium containing 1% DMSO. The cells are then incubated with the substances for 72 hours at 37° C. in a humified atmosphere containing 5% carbon dioxide. To determine the viability of the cells, 20 μl of an Alamar Blue solution (Biosource) are added and the fluorescence is measured at an extinction of 544 nm and an emission of 590 nm. For the calculation of cell viability the emission value from untreated cells is set to 100% viability and the emission rates of treated cells are set in relation to the values of untreated cells. Viabilities are expressed as % values.
The corresponding IC50 values of the compounds for anti-proliferative/cytotoxic activity are determined from the concentration-effect curves.
Representative IC50 values for anti-proliferation/cytotoxicity determined in the aforementioned assay follow from the following table A, in which the numbers of the compound correspond to the numbers of the examples.
Background: The colour change of resazurin is a common sign of viable cells or microbes.

Series [2] has the same test system. Briefly: modified Alamar Blue cell viability assay for compound combinations. It is filed as cell-based. The settings on record: in combination with the compounds according to this invention; concentration-effect curves, single compound vs. combination. On the procedure: In order to assess favorable compound combinations in vitro which might be used for therapeutic applications, a modified Alamar Blue cell viability assay (described in O'Brien et al. Eur J Biochem 267, 5421-5426, 2000) is applied. For that purpose, anti-proliferative/cytotoxic effects of the compounds described herein in combination with other pharmacologically active compounds are assayed on NCl-H460 non-small cell lung cancer cells. The respective compounds are dissolved as 20 mM solutions in dimethylsulfoxide (DMSO) and subsequenty diluted in semi-logarithmic steps. […] To determine the viability of the cells, 20 μl of an Alamar Blue solution (Biosource) are added and the fluorescence is measured at an extinction of 544 nm and an emission of 590 nm. For the calculation of cell viability the fluorescence emission value from untreated cells is set to 100% viability and the emission values of treated cells are set in relation to the values of untreated cells. Viabilities are expressed as % values. […]
Synergistic or antagonistic effects of compound combinations can be determined from the concentration-effect curves by comparison of curve shapes and IC50 values for single compound treatment vs. the compound combination.

The term melting point denotes the temperature of the solid-liquid transition.

As to `COc1cc2c(cc1OC)-c1c(C(=O)C3CC3)c(-c3cc(C)c(O)c(C)c3)c(C)n1CC2` [Example 6, 1-Cyclopropyl-1-[2-(4-hydroxy-3,5-dimethyl-phenyl)-8,9-dimethoxy-3-methyl-5,6-dihydro-pyrrolo[2,1-a]isoquinolin-1-yl]-methanone], the IC50 in series [1] is 0.158 to 1.58 µM. Regarding `Nc1ncnc2c1nc(Sc1ccc(Cl)cc1)n2[C@@H]1O[C@@H]2COP(O)(=S)O[C@H]2[C@H]1O` (stereo partly shown) [RP-8-CPT-cAMPs], in series [2], the “synergistic effects with the compounds according to this invention” value is “highly synergistic”. With `CCC(=O)c1c(-c2csc3ccccc23)c(C)n2c1-c1cc(OC)c(OC)cc1CC2` [Example 3, 1-(2-Benzo[b]thiophen-3-yl-8,9-dimethoxy-3-methyl-5,6-dihydro-pyrrolo[2,1-a]isoquinolin-1-yl)-propan-1-one], the melting point lay within 181 to 183 °C. In series [1], the IC50 is 0.158 to 1.58 µM. Regarding `CCC(=O)c1c(-c2cc(C)c(O)c(C)c2)c(C)n2c1-c1cc(OC)c(OC)cc1CC2` [Example 1, 1-[2-(4-Hydroxy-3,5-dimethyl-phenyl)-8,9-dimethoxy-3-methyl-5,6-dihydro-pyrrolo[2,1-a]isoquinolin-1-yl]-propan-1-one], the IC50 in series [1] is 0.158 to 1.58 µM. `CCC(=O)c1c(-c2ccc(-c3ccccc3)cc2)c(C)n2c1-c1cc(OC)c(OC)cc1CC2` [Example 5, 1-(2-Biphenyl-4-yl-8,9-dimethoxy-3-methyl-5,6-dihydro-pyrrolo[2,1-a]isoquinolin-1-yl)-propan-1-one] came in with a melting point of 209 to 211 °C. For the same compound, the IC50 in series [1] is 0.158 to 1.58 µM.

In turn, `CCC(=O)c1c(-c2ccc(OC)c(OC)c2F)c(C)n2c1-c1cc(OC)c(OC)cc1CC2` [Example 2, 1-[2-(2-Fluoro-3,4-dimethoxy-phenyl)-8,9-dimethoxy-3-methyl-5,6-dihydro-pyrrolo[2,1-a]isoquinolin-1-yl]-propan-1-one] had a melting point of 129 to 132 °C.

Take `CCC(=O)c1c(-c2c[nH]c3ccccc23)c(C)n2c1-c1cc(OC)c(OC)cc1CC2` [Example 4, 1-[2-(1H-Indol-3-yl)-8,9-dimethoxy-3-methyl-5,6-dihydro-pyrrolo[2,1-a]isoquinolin-1-yl]-propan-1-one]: the melting point was 238 to 240 °C. Besides, the IC50 in series [1] is 0.158 to 1.58 µM.
